Data published in US9872875B2, “Component and method for treating viral disease” (Institut Pasteur of Shanghai, Chinese Academy of Sciences, priority 2012, dated 2018).
Like-named read-outs stand apart in the source and are kept apart here.

Experiments:
P2X4 receptor = target: T1, P2X4 receptor (Homo sapiens, UniProt Q99571); conditions: cited from earlier work
T1 sequence (Q99571 1-388): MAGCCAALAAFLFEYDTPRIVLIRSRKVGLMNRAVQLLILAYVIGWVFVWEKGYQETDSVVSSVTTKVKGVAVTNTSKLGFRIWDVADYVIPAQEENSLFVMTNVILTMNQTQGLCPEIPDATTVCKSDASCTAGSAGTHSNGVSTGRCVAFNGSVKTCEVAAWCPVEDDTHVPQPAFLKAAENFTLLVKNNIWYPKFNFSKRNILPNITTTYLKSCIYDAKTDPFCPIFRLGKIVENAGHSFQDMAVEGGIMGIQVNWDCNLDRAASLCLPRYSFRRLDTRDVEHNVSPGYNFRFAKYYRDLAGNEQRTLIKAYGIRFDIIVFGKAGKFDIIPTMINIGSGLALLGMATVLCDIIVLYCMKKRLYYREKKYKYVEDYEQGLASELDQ

P2X3 receptor = target: T2, P2X3 receptor (Homo sapiens, UniProt P56373); conditions: cited from earlier work
T2 sequence (P56373 1-397): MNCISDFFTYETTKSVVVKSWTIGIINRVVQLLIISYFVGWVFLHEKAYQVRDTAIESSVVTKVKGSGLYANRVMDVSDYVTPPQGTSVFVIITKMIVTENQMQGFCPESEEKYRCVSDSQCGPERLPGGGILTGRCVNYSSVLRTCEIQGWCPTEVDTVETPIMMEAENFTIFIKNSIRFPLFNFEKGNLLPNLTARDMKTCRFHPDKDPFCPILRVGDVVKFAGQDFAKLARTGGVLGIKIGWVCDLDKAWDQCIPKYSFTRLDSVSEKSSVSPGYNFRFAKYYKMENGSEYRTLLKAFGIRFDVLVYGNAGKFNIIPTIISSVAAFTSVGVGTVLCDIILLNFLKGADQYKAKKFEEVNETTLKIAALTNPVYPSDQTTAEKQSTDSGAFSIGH

P2X2 receptor = target: T3, P2X2 receptor (Homo sapiens, UniProt Q9UBL9); design: key: −: no activity; +: activating concentration >10 μM; ++: activating concentration 1~10 μM; +++: activating concentration <1 μM; conditions: cited from earlier work
T3 sequence (Q9UBL9 1-471): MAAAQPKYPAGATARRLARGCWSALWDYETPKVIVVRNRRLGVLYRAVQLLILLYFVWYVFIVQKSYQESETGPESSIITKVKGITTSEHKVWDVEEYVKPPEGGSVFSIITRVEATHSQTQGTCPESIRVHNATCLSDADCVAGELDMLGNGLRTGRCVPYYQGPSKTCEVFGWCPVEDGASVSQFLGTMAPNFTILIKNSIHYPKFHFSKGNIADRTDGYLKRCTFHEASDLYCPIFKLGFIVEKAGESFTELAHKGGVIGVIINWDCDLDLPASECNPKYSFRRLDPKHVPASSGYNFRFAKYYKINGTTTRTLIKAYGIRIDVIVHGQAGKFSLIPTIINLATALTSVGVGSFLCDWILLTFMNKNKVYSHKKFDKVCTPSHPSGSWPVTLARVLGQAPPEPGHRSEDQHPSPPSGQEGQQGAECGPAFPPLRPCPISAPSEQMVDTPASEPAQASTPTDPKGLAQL

P2X1 receptor = target: T4, P2X1 receptor (Homo sapiens, UniProt P51575); design: key: −: no activity; +: activating concentration >10 μM; ++: activating concentration 1~10 μM; +++: activating concentration <1 μM; conditions: cited from earlier work
T4 sequence (P51575 1-399): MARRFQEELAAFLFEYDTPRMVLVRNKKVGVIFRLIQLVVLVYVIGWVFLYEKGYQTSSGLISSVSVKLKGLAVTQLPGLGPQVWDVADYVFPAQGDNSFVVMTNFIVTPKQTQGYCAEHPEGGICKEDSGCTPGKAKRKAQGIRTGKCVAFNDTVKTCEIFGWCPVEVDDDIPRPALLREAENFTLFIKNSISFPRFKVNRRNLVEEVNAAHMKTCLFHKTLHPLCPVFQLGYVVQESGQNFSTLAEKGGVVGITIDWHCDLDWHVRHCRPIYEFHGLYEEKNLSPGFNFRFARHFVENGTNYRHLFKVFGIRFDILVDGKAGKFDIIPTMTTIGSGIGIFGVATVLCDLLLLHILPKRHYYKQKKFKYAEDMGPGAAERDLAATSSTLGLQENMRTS

EV71 [1] = assay: Inhibition of EV71 replication in RD cells at 0.1, 1, 10 and 100 μM (CPE, crystal violet); type: cell-based, Enterovirus 71; design: key to Inhibition of EV71 replication: −: no activity
Experimental: Inhibitory effect of each P2X receptor antagonists and agonists on EV71 replication was measured at 0.1, 1, 10, and 100 μM. Specific procedures refer to “1” of Example 1. after infection, however, cells need to be incubated for 3˜4 days, stained with crystal violet, and observed under optical microscope to determine whether or not CPE (cytopathic effect) was present. In addition, the effect of compounds at each concentration on cytotoxicity to RD cells was determined. After culturing RD cells in various concentrations of compounds for 3˜4 days, stained with crystal violet, and observed under optical microscope to observe whether or not cell layer was damaged. Compounds capable of protecting cells from infection without damage of healthy cell layer can inhibit EV71 replication in RD cells.

P2X7 receptor = target: T5, P2X7 receptor (Homo sapiens, UniProt Q99572); conditions: cited from earlier work
T5 sequence (Q99572 1-595): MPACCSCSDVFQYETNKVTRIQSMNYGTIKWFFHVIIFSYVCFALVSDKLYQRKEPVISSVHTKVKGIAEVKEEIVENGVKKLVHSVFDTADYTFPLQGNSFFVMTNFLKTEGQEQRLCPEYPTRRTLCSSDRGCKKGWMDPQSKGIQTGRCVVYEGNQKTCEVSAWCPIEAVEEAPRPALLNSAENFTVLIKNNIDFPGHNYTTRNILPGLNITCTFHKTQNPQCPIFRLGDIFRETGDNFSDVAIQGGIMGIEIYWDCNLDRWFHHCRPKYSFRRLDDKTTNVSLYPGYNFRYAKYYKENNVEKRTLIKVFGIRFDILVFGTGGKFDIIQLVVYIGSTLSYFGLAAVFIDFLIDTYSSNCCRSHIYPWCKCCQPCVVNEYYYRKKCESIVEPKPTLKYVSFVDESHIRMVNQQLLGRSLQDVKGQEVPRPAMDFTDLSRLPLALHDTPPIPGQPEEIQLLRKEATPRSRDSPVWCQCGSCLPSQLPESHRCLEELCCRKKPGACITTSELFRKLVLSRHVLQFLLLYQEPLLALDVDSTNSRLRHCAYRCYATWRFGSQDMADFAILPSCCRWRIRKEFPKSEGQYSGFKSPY

EV71 [2] = assay: Effects of other antagonists and agonists on EV71 (Table 9); type: cell-based, Enterovirus 71; design: key: “NO” indicates there is negative
P2X2/3 = P2X2/3 (Homo sapiens, UniProt P56373+Q9UBL9); conditions: Table 9, antagonists; cited from earlier work
P2X5 receptor = P2X5 receptor (Homo sapiens, UniProt Q93086); conditions: cited from earlier work
EV71 FY-23 = assay: EV71 infection of adult rhesus monkeys: blood viral load and body temperature; type: in vivo, rhesus monkey (Macaca); conditions: 50 mg/kg suramin i.v.
Source text: 10 adult rhesus monkeys, which were detected negative for EV71 antibody (rhesus monkey (Macaca), Source: Institute of Medical Biology, Chinese Academy of Medical Sciences, Experimental animal use license number: SYXK (Yunnan) 2010-0009, Certification unit: Yunnan Provincial Science and Technology Agency), were randomly divided into two groups, namely: five in control group (aged about 4 years old, weighing about 5.3 kg, injected with physiological saline), 5 in treatment group (aged about 4.6 years old, weighs about 5.44 kg, injected with 50 mg/kg suramin). Multiple intravenous injections of suramin (50 mg/kg) were used. […] Specific experimental procedure is as follows:
Then, drug was administered intravenously at a dose (50 mg/kg suramin or physiological saline).
Intravenous viral challenge was performed with 4.5 lgCCID50 EV71 FY-23.
Whole blood RNA extraction: obtained 0.2 ml blood, added 0.8 ml TRNzol-A^+, after mixing, placed the well at room temperature for 10 min; added 0.2 ml chloroform, tightened cover lid, vigorously shaking for 15 sec, placed at room temperature for 5 min, centrifuged at 12500 rpm, 4° C., 20 min, 0.4 ml of aqueous phase was transferred to another fresh tube, equal volume of isopropanol was added, mixed, placed at room temperature for 30 min; centrifuged at 12500 rpm, 4° C., 20 min, supernatant was discarded, 1 ml of 75% ethanol was added to wash precipitates, centrifuged at 12500 rpm, 4° C., 30 min. Supernatant discarded, placed at room temperature for 30 min, RNA dried, 20 μl RNase-free ddH2O added, and RNA fully dissolved. Viral load was determined by measurement method as follows:
1) Standard dilutions: obtaining standards (performed according to TaKaRa MiniBEST Viral RNA/DNA extraction Kit Ver 3.0 instructions), 10 μl standards were obtained, 10-fold serial dilutions 10^6, 10^5, 10^4, 10^3, 10^2, 10^1, 10^0.
2) Primer sequences (Taqman probe method):
3) Preparing RT-PCR reaction solution (reaction solutions were prepared on ice):
4) Performing Real Time One Step RT-PCR.

Sequence of P2X5 receptor (Q93086 whole entry): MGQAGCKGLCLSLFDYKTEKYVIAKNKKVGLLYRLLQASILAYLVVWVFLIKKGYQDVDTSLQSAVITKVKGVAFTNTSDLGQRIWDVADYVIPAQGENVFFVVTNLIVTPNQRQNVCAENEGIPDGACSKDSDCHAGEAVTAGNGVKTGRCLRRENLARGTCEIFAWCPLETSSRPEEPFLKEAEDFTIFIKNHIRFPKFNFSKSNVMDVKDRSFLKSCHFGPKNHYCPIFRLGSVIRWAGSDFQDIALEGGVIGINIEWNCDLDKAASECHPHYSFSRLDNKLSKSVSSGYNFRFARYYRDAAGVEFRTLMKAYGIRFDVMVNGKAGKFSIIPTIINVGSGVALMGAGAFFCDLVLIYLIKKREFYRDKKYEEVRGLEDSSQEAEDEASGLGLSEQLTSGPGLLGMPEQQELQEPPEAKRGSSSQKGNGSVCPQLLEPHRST

Molecule | P2X receptors 3 (P2X3 receptor; Table 8, antagonists) | P2X receptors 2 (P2X2 receptor; Table 8, antagonists) | P2X receptors 1 (P2X1 receptor; Table 8, antagonists) | inhibition of EV71 replication (statement in words) (EV71 [1]) | Inhibition of EV71 replication (EV71 [1]; Table 8, antagonists) | P2X receptors 7 (P2X7 receptor; Table 8, antagonists) | EV71 Log10 reduction (EV71 [2]) | P2X receptors 3 (P2X3 receptor; Table 9, antagonists) | Heteromultimer (P2X2/3) | P2X receptors 4 (P2X4 receptor; Table 8, agonists) | P2X receptors 3 (P2X3 receptor; Table 8, agonists) | P2X receptors 5 (P2X5 receptor; Table 8, agonists) | P2X receptors 5 (P2X5 receptor; Table 9, agonists) | P2X receptors 2 (P2X2 receptor; Table 8, agonists) | P2X receptors 1 (P2X1 receptor; Table 8, agonists) | Inhibition of EV71 replication (EV71 [1]; Table 8, agonists) | other results
O=C(Nc1ccc(C(=O)Nc2ccc(C(=O)Nc3ccc(S(=O)(=O)O)c4cc(S(=O)(=O)O)cc(S(=O)(=O)O)c34)cc2)cc1)Nc1ccc(C(=O)Nc2ccc(C(=O)Nc3ccc(S(=O)(=O)O)c4cc(S(=O)(=O)O)cc(S(=O)(=O)O)c34)cc2)cc1 [NF279, 8,8′-(carbonylbis(imino-4,1-phenylenecarbonylimino-4,1-phenylenecarbonylimino))bis(1,3,5-naphthalenetrisulfonic acid)] | + (+: inhibitory concentration >300 nM) | + (+: inhibitory concentration >300 nM) | +++ (+++: inhibitory concentration <10 nM) | can also inhibit EV71 replication | + (+: inhibitory concentration >300 nM) | + (+: inhibitory concentration >300 nM) |  |  |  |  |  |  |  |  |  |  | P2X receptors 4 (P2X4 receptor; Table 8, antagonists): −
COc1cc(Cc2cnc(N)nc2N)c(C(C)C)cc1OC [RO-3] |  |  |  |  |  |  | NO | ✓ ✓ (✓ ✓ activating concentration 10 nM-300 nM) | ✓ P2X2/3 (✓ activating concentration >300 nM) |  |  |  |  |  |  |  | 
O=c1ccn([C@@H]2O[C@H](COP(=O)(O)OP(=O)(O)OP(=O)(O)O)[C@@H](O)[C@H]2O)c(=O)[nH]1 [UTP, uridine triphosphate] |  |  |  |  |  |  | NO |  |  | − | − | + (+: activating concentration >10 μM) | ✓ (✓ activating concentration >10 μM) | − | − | − | 
Cc1ccc(C(=O)Nc2ccc(S(=O)(=O)O)c3cc(S(=O)(=O)O)cc(S(=O)(=O)O)c23)cc1NC(=O)c1cccc(NC(=O)Nc2cccc(C(=O)Nc3cc(C(=O)Nc4ccc(S(=O)(=O)O)c5cc(S(=O)(=O)O)cc(S(=O)(=O)O)c45)ccc3C)c2)c1 [suramin, Suramin] |  |  |  |  |  |  |  |  |  |  |  |  |  |  |  |  | viral load compared with control group (EV71 FY-23; rhesus monkeys): significantly lower; blood viral load of drug treatment group (average) (EV71 FY-23; 4th, 7th and 13th days after viral challenge, control peak 1-1.5×10^3 copies/ml): 1.5×10^1 copies/ml; body temperature after infection (EV71 FY-23; control group showed a rise 1 day after infection): essentially maintained body temperatures within normal range
bzATP |  |  |  |  |  |  | NO |  |  | +++ (+++: activating concentration <1 μM) | + (+: activating concentration >10 μM) | ++ (++: activating concentration 1~10 μM) | ✓ ✓ (✓ ✓ activating concentration 1-10 μM) | ++ (++: activating concentration 1~10 μM) | +++ (+++: activating concentration <1 μM) | − | P2X receptors 4 (P2X4 receptor; Table 9, agonists): ✓ ✓ ✓ (✓ ✓ ✓ activating concentration <1 μM); P2X receptors 3 (P2X3 receptor; Table 9, agonists): ✓ (✓ activating concentration >10 μM); P2X receptors 2 (P2X2 receptor; Table 9, agonists): ✓ ✓ (✓ ✓ activating concentration 1-10 μM); P2X receptors 1 (P2X1 receptor; Table 9, agonists): ✓ ✓ ✓ (✓ ✓ ✓ activating concentration <1 μM); P2X receptors 7 (P2X7 receptor; Table 8, agonists): ++ (++: activating concentration 1~10 μM); P2X receptors 7 (P2X7 receptor; Table 9, agonists): ✓ ✓ ✓ (✓ ✓ ✓ activating concentration <1 μM)
trinitrophenol-ATP [TNP-ATP] | +++ (+++: inhibitory concentration <10 nM) | + (+: inhibitory concentration >300 nM) | +++ (+++: inhibitory concentration <10 nM) | can also inhibit EV71 replication | + (+: inhibitory concentration >300 nM) | + (+: inhibitory concentration >300 nM) | NO | ✓ ✓ ✓ (✓ ✓ ✓ activating concentration <10 nM) | ✓ ✓ ✓ (✓ ✓ ✓ activating concentration <10 nM) |  |  |  |  |  |  |  | P2X receptors 5 (P2X5 receptor; Table 8, antagonists): + (+: inhibitory concentration >300 nM); P2X receptors 1 (P2X1 receptor; Table 9, antagonists): ✓ ✓ ✓ (✓ ✓ ✓ activating concentration <10 nM)
